Test results: patent US12358886B2, “Heterocyclic compounds for use in the treatment of cancer” (Artios Pharma Limited, priority 2019, dated 2025)

What follows are compounds tested against Polθ protein (amino acids 2-2590) (Homo sapiens, UniProt O75417) (assay: Polθ full length enzyme potency assay (PicoGreen)). Details: Polθ IC50 (nM), full length N-His, C-term FLAG tagged Polθ, PicoGreen fluorescence, 12 point concentration response.
Sequence of Polθ protein (amino acids 2-2590) (O75417 2-2590): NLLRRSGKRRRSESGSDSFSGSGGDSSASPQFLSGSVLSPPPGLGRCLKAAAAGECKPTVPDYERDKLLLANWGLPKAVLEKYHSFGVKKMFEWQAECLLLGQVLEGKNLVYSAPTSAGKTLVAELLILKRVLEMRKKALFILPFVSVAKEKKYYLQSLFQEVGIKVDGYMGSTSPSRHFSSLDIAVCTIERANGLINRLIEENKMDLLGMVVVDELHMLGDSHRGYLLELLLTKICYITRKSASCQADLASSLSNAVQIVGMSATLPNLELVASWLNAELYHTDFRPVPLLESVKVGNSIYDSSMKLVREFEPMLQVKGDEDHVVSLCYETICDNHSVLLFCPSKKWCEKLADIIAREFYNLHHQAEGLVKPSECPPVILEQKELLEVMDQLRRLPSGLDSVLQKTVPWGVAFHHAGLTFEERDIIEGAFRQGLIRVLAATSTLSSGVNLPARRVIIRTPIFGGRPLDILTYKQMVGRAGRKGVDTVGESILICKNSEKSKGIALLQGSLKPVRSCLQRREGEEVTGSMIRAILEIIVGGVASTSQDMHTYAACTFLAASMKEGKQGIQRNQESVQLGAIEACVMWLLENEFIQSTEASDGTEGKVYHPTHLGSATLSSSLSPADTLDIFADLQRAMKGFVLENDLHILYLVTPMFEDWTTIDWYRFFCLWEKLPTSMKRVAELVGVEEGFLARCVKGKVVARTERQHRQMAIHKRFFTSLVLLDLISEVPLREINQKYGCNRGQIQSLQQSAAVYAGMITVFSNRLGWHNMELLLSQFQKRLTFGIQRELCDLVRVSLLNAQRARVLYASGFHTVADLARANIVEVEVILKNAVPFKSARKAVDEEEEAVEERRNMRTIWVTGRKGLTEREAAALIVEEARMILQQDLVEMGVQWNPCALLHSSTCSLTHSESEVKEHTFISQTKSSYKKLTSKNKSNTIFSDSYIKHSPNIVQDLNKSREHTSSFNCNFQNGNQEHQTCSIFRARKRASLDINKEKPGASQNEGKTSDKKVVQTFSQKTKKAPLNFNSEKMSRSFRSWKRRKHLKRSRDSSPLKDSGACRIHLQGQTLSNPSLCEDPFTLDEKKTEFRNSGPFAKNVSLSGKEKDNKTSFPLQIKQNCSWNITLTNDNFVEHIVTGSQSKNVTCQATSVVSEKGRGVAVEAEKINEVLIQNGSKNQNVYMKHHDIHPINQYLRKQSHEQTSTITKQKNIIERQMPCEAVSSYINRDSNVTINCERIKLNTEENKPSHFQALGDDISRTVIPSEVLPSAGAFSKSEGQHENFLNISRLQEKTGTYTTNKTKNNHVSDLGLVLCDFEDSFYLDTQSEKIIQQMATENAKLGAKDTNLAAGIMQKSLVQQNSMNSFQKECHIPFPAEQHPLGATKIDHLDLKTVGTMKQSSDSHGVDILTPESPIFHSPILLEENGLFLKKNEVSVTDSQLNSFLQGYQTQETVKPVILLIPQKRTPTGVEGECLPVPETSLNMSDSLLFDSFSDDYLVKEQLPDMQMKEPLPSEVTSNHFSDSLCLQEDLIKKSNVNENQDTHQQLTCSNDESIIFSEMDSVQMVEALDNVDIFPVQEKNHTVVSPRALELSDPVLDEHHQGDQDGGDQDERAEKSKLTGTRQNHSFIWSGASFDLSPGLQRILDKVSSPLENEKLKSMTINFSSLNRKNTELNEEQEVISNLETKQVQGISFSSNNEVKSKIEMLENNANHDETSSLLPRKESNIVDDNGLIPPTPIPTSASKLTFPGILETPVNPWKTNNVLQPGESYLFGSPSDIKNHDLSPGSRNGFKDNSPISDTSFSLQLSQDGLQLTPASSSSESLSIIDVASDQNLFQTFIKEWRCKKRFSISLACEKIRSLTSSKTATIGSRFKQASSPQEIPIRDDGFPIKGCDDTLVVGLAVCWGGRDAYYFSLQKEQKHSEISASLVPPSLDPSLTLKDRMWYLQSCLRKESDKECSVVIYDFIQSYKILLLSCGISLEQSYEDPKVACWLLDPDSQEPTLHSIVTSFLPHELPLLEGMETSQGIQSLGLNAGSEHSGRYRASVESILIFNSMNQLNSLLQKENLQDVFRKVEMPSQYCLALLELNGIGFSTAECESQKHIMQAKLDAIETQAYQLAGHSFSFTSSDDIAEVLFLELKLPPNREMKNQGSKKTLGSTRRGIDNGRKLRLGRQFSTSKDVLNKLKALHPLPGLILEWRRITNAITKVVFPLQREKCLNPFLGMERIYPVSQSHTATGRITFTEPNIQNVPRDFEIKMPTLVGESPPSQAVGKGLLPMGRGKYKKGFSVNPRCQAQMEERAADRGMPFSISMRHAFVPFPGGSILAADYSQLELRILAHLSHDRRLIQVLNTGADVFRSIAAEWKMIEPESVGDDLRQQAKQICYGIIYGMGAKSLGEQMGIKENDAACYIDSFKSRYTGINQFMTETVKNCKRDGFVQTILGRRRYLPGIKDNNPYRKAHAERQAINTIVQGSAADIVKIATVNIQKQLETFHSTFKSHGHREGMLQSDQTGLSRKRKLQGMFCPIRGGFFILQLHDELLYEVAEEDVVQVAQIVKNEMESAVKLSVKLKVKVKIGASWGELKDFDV
Procedure: Polθ Full Length Enzyme Potency Assay
PicoGreen assay was used to measure the ability of compounds to inhibit the activity of Polθ in vitro. […] DMSO concentration was maintained at 1% by back filling with DMSO solution. […] This was dispensed into each well of the compound plate using a VIAFLO 16 channel manual pipette (Integra) and pre-incubated at rt for 30 min. 3 μL of 2× working solution of dNTPs (40 μM) (dATP, dCTP, dGTP, dTTP; Sigma D6500, D4635, D4010, T0251) diluted in assay buffer was then added and the reaction incubated for 60 min at rt. The reaction was stopped by addition of 10 mM EDTA, 25 mM Tris pH 7.5 and 1:200 dilution of PicoGreen dye (Invitrogen P7581).

`CO[C@H]1C[C@@H](C(=O)N(C)c2cccc(C)c2)N(c2nc(C)cc(C(F)(F)F)c2C#N)C1` [Example 36, (2S,4S)-1-(3-Cyano-6-methyl-4-(trifluoromethyl)pyridin-2-yl)-4-methoxy-N-methyl-N-(m-tolyl)pyrrolidine-2-carboxamide] was tested. Which IC50 did it give?
The IC50 was 48 nM.

How did the IC50 turn out when `CCc1cc(C)nc(N2C(=O)OC[C@H]2C(=O)N(C)c2ccc(F)c(Cl)c2)c1` [Example 119, (S)—N-(3-Chloro-4-fluorophenyl)-3-(4-ethyl-6-methylpyridin-2-yl)-N-methyl-2-oxooxazolidine-4-carboxamide] was run?
Its IC50 is 39 nM.

For `CCN(C(=O)[C@@H]1C[C@H](N2CCOC[C@@H]2CO)CN1c1nc(C)cc(C(F)(F)F)c1C#N)c1ccc(F)c(Cl)c1` [Example 152, (2S,4S)-N-(3-Chloro-4-fluorophenyl)-1-(3-cyano-6-methyl-4-(trifluoromethyl)pyridin-2-yl)-N-ethyl-4-((S)-3-(hydroxymethyl)morpholino)pyrrolidine-2-carboxamide], which IC50 is on record?
The IC50 was 26 nM.

For `Cc1cc(C(F)(F)F)cc(N2C(=O)N(CC(C)O)C[C@H]2C(=O)N(C)c2ccc(F)c(Cl)c2)n1` (stereo partly drawn) [Example 160, (4S)—N-(3-Chloro-4-fluorophenyl)-1-(2-hydroxypropyl)-N-methyl-3-(6-methyl-4-(trifluoromethyl)pyridin-2-yl)-2-oxoimidazolidine-4-carboxamide], which IC50 is on record?
Its IC50 is 6 nM.

Which IC50 does the source give for `Cc1cc(C(F)(F)F)cc(N2C(=O)N(CCN3CC[C@@H](O)C3)C[C@H]2C(=O)N(C)c2ccc(F)c(Cl)c2)n1` [Example 197, (S)-N-(3-Chloro-4-fluorophenyl)-1-(2-((R)-3-hydroxypyrrolidin-1-yl)ethyl)-N-methyl-3-(6-methyl-4-(trifluoromethyl)pyridin-2-yl)-2-oxoimidazolidine-4-carboxamide] here?
Its IC50 is 19 nM.

For `Cc1cc(C(F)(F)F)cc(N2C(=O)N(CCC(=O)N(C)C)C[C@H]2C(=O)N(C)c2ccc(F)c(Cl)c2)n1` [Example 190, (S)—N-(3-Chloro-4-fluorophenyl)-1-(3-(dimethylamino)-3-oxopropyl)-N-methyl-3-(6-methyl-4-(trifluoromethyl)pyridin-2-yl)-2-oxoimidazolidine-4-carboxamide], which IC50 is on record?
Its IC50 is 13 nM.

For `CN(C(=O)[C@@H]1COC(=O)N1c1cc(C(F)(F)F)cc(Cl)n1)c1ccc(F)c(Cl)c1` [Example 113, (S)-3-(6-Chloro-4-(trifluoromethyl)pyridin-2-yl)-N-(3-chloro-4-fluorophenyl)-N-methyl-2-oxooxazolidine-4-carboxamide], which IC50 is on record?
Its IC50 is 21 nM.

`Cc1cccc(N(C)C(=O)[C@@H]2C[C@H](O)CN2c2nc(N(C)C)cc(C(F)(F)F)c2C#N)c1` [Example 32, (2S,4S)-1-(3-Cyano-6-(dimethylamino)-4-(trifluoromethyl)pyridin-2-yl)-4-hydroxy-N-methyl-N-(m-tolyl)pyrrolidine-2-carboxamide] was tested. Which IC50 did it give?
Its IC50 is 209 nM.

With `Cc1cc(C(F)(F)F)cc(N2C(=O)N(CC(O)CO)C[C@H]2C(=O)N(c2ccc(F)c(Cl)c2)C2CC2)n1` (stereo partly drawn) [Example 231, (4S)—N-(3-Chloro-4-fluorophenyl)-N-cyclopropyl-1-(2,3-dihydroxypropyl)-3-(6-methyl-4-(trifluoromethyl)pyridin-2-yl)-2-oxoimidazolidine-4-carboxamide] as the compound, how does the IC50 read?
Its IC50 is 94 nM.

Which IC50 does the source give for `Cc1cc(C(F)(F)F)cc(N2C(=O)C[C@@H](O)[C@H]2C(=O)N(C)c2ccc(F)c(Cl)c2)n1` [Example 80, (2S,3R)—N-(3-Chloro-4-fluorophenyl)-3-hydroxy-N-methyl-1-(6-methyl-4-(trifluoromethyl)-pyridin-2-yl)-5-oxopyrrolidine-2-carboxamide] here?
The IC50 was 6 nM.

How did the IC50 turn out when `Cc1cc(C(F)(F)F)cc(N2C(=O)OC[C@H]2C(=O)N(C)c2ccc(C)c(O)c2)n1` [Example 105, (S)—N-(3-Hydroxy-4-methylphenyl)-N-methyl-3-(6-methyl-4-(trifluoromethyl)pyridin-2-yl)-2-oxooxazolidine-4-carboxamide] was run?
The IC50 was 19 nM.

For `CCN(C(=O)[C@@H]1C[C@H](N2CCOC(CO)C2)CN1c1nc(C)cc(C(F)(F)F)c1C#N)c1ccc(Cl)c(Cl)c1` (stereo partly drawn) [Example 148, (2S,4S)-1-(3-Cyano-6-methyl-4-(trifluoromethyl)pyridin-2-yl)-N-(3,4-dichlorophenyl)-N-ethyl-4-(2-(hydroxymethyl)-morpholino)pyrrolidine-2-carboxamide], which IC50 is on record?
Its IC50 is 6 nM.

With `Cc1cc(C(F)(F)F)cc(N2C(=O)[C@H](O)[C@H](O)[C@H]2C(=O)N(C)c2ccc(F)c(Cl)c2F)n1` [Example 71, (2S,3R,4R)—N-(3-Chloro-2,4-difluorophenyl)-3,4-dihydroxy-N-methyl-1-(6-methyl-4-(trifluoromethyl)pyridin-2-yl)-5-oxopyrrolidine-2-carboxamide] as the compound, how does the IC50 read?
Its IC50 is 10 nM.

`CC(=O)N1CCN(CCN2C[C@@H](C(=O)N(C)c3ccc(F)c(Cl)c3F)N(c3cc(C(F)(F)F)cc(C)n3)C2=O)CC1` [Example 204, (S)-1-(2-(4-Acetylpiperazin-1-yl)ethyl)-N-(3-chloro-2,4-difluoro-phenyl)-N-methyl-3-(6-methyl-4-(trifluoromethyl)pyridin-2-yl)-2-oxoimidazolidine-4-carboxamide] was tested. Which IC50 did it give?
Its IC50 is 3 nM.

How did the IC50 turn out when `Cc1cccc(N(C)C(=O)[C@@H]2C[C@H](O)CN2c2nc(C)cc(C(C)C)c2C#N)c1` [Example 33, (2S,4S)-1-(3-Cyano-4-isopropyl-6-methylpyridin-2-yl)-4-hydroxy-N-methyl-N-(m-tolyl)pyrrolidine-2-carboxamide] was run?
Its IC50 is 30 nM.

How did the IC50 turn out when `CCN(C(=O)[C@@H]1C[C@H](N(C)[C@@H]2COCC[C@H]2O)CN1c1cc(C(F)(F)F)cc(C)n1)c1ccc(F)c(F)c1` [Example 140, (2S,4S)-N-(3,4-Difluorophenyl)-N-ethyl-4-(((3R,4R)-4-hydroxytetrahydro-2H-pyran-3-yl)(methyl)amino)-1-(6-methyl-4-(trifluoromethyl)pyridin-2-yl)pyrrolidine-2-carboxamide] was run?
The IC50 was 60 nM.

With `Cc1cc(C(F)(F)F)cc(N2C(=O)N(CC(N)=O)C[C@H]2C(=O)N(C)c2ccc(F)c(Cl)c2)n1` [Example 184, (S)-1-(2-Amino-2-oxoethyl)-N-(3-chloro-4-fluorophenyl)-N-methyl-3-(6-methyl-4-(trifluoromethyl)-pyridin-2-yl)-2-oxoimidazolidine-4-carboxamide] as the compound, how does the IC50 read?
The IC50 was 13 nM.

Which IC50 does the source give for `CCN(C(=O)[C@@H]1C[C@H](N(C)[C@@H]2CN(C(=O)OC(C)(C)C)C[C@H]2O)CN1c1cc(C(F)(F)F)cc(C)n1)c1ccc(F)c(F)c1` (racemic) [Example 143, rac-tert-Butyl (3R,4R)-3-(((3S,5S)-5-((3,4-difluorophenyl)(ethyl)carbamoyl)-1-(6-methyl-4-(trifluoromethyl)pyridin-2-yl)pyrrolidin-3-yl)(methyl)amino)-4-hydroxypyrrolidine-1-carboxylate] here?
Its IC50 is 409 nM.

With `CCN(C(=O)[C@H]1C[C@@H](N(C)C2CCN(C(C)=O)C2)CN1c1nc(C)cc(C)c1C#N)c1cccc(C)c1` (stereo in doubt) [Example 52, (2R,4R)-4-((1-Acetylpyrrolidin-3-yl)(methyl)amino)-1-(3-cyano-4,6-dimethylpyridin-2-yl)-N-ethyl-N-(m-tolyl)pyrrolidine-2-carboxamide] as the compound, how does the IC50 read?
The IC50 was 588 nM.

Which IC50 does the source give for `Cc1cc(C(F)(F)F)cc(N2C(=O)N(CCN3CCN(C)C(=O)C3)C[C@H]2C(=O)N(C)c2ccc(F)c(Cl)c2F)n1` [Example 210, (S)-N-(3-Chloro-2,4-difluorophenyl)-N-methyl-1-(2-(4-methyl-3-oxopiperazin-1-yl)ethyl)-3-(6-methyl-4-(trifluoromethyl)pyridin-2-yl)-2-oxoimidazolidine-4-carboxamide] here?
The IC50 was 7 nM.

Which IC50 does the source give for `Cc1cc(C(F)(F)F)cc(N2C(=O)N(CCS(=O)(=O)N(C)C)C[C@H]2C(=O)N(C)c2ccc(F)c(Cl)c2)n1` [Example 181, (S)—N-(3-Chloro-4-fluorophenyl)-1-(2-(N,N-dimethylsulfamoyl)ethyl)-N-methyl-3-(6-methyl-4-(trifluoromethyl)pyridin-2-yl)-2-oxoimidazolidine-4-carboxamide] here?
The IC50 was 45 nM.

Which IC50 does the source give for `Cc1cc(C(F)(F)F)cc(N2C(=O)N(CC3CNCCO3)C[C@H]2C(=O)N(C)c2ccc(F)c(Cl)c2F)n1` (stereo partly drawn) [Example 218, (4S)—N-(3-Chloro-2,4-difluorophenyl)-N-methyl-3-(6-methyl-4-(trifluoromethyl)pyridin-2-yl)-1-(morpholin-2-ylmethyl)-2-oxoimidazolidine-4-carboxamide] here?
Its IC50 is 16 nM.

Which IC50 does the source give for `Cc1cc(C(F)(F)F)cc(N2C(=O)N(CCCN(C)C)C[C@H]2C(=O)N(C)c2ccc(F)c(Cl)c2)n1` [Example 183, (S)-N-(3-Chloro-4-fluorophenyl)-1-(3-(dimethylamino)propyl)-N-methyl-3-(6-methyl-4-(trifluoromethyl)pyridin-2-yl)-2-oxoimidazolidine-4-carboxamide] here?
Its IC50 is 24 nM.

How did the IC50 turn out when `Cc1cc(C(F)(F)F)cc(N2C(=O)OC[C@H]2C(=O)N(C)c2ccc(C)c(Cl)c2)n1` [Example 88, (S)-N-(3-Chloro-4-methylphenyl)-N-methyl-3-(6-methyl-4-(trifluoromethyl)pyridin-2-yl)-2-oxooxazolidine-4-carboxamide] was run?
Its IC50 is 6 nM.

Same assay, conditions: read-out: Polθ IC50; full length N-His, C-term FLAG tagged Polθ, PicoGreen fluorescence, 12 point concentration response

With `CCN(C(=O)[C@@H]1C[C@H](O)CN1c1nc(C)cc(C(F)(F)F)c1C#N)c1cccc(C)c1` [Example 22, (2S,4S)-1-(3-Cyano-6-methyl-4-(trifluoromethyl)pyridin-2-yl)-N-ethyl-4-hydroxy-N-(m-tolyl)-pyrrolidine-2-carboxamide] as the compound, how does the IC50 read?
Its IC50 is 27 nM.

With `CCN(C(=O)[C@@H]1[C@H](O)[C@H](O)C(=O)N1c1cc(C(F)(F)F)cc(C)n1)c1ccc(F)c(Cl)c1` [Example 66, (2S,3S,4S)-N-(3-Chloro-4-fluoro-phenyl)-N-ethyl-3,4-dihydroxy-1-(6-methyl-4-(trifluoromethyl)pyridin-2-yl)-5-oxopyrrolidine-2-carboxamide] as the compound, how does the IC50 read?
Its IC50 is 20 nM.

Which IC50 does the source give for `Cc1cc(C(F)(F)F)c(C#N)c(N2C[C@@H](O)C[C@H]2C(=O)N(C)c2ccc(F)c(Cl)c2)n1` [Example 5, (2S,4S)—N-(3-Chloro-4-fluorophenyl)-1-(3-cyano-6-methyl-4-(trifluoro-methyl)pyridin-2-yl)-4-hydroxy-N-methylpyrrolidine-2-carboxamide] here?
Its IC50 is 16 nM.
